The source of these data is PubChem BioAssay AID588588 (Sanford-Burnham Center for Chemical Genomics, 2011).

SMILES strings stand for the structures. Where “and” joins values, the source holds several entries; their conditions need not be identical. Equal entries are not always repeated. Calls of active or inactive are those of the source. How the calls were made is not given here. Bounds are passed on as bounds.

This test addresses glucose-6-phosphate dehydrogenase-6-phosphogluconolactonase (Plasmodium falciparum 3D7). As to the kind of experiment: inhibition of P. falciparum G6PD activity – biochemical, end-point NADPH detection, orthogonal assay, SAR follow-up (AID 588588). The following applies: recombinant PfG6PD-6PGL, direct NADPH end-point detection.
For `CCN1CCCC1CNC(=O)c1ccc2c(c1)N(Cc1cccc(F)c1)C(=O)c1ccccc1S2` (stereo not drawn), the IC50 was > 80 µM (inactive).

Turning to `O=C1Nc2cc(C(=O)NCCN3CCOCC3)ccc2S/C1=C\c1ccccc1F`, the IC50 was > 80 µM (inactive). Then `CCN(CC)CCNC(=O)c1ccc2c(c1)NC(=O)c1ccccc1O2`, with > 80 µM (inactive); and `COc1ccc(/C=C2/Sc3ccc(C(=O)NCCN4CCCC4)cc3NC2=O)cc1`, with > 80 µM (inactive); and `O=C1Nc2cc(C(=O)NCCN3CCCCCC3)ccc2S/C1=C/c1ccccc1F`, with > 80 µM (inactive).

Regarding `Cc1ccc(C(=O)Nc2nnc(S(=O)(=O)N3CCCCCC3)s2)cc1`, the IC50 is > 80 µM (inactive). Next, `O=C1Nc2cc(C(=O)NCCN3CCCC3)ccc2S/C1=C\c1ccccc1F`: > 80 µM (inactive). Then `COc1ccc(C(=O)Nc2nnc(S(=O)(=O)N3CCCCCC3)s2)cc1OC`, with > 80 µM (inactive); and `CCCN(CCC)CCNC(=O)c1ccc2c(c1)NC(=O)/C(=C/c1ccccc1)S2`, with > 80 µM (inactive). Next, `O=C(Nc1nnc(S(=O)(=O)N2CCCCCC2)s1)c1cccc(F)c1`: > 80 µM (inactive); `CCN1CCCC1CNC(=O)c1ccc2c(c1)NC(=O)/C(=C/c1ccccc1OC)S2` (stereo not drawn): > 80 µM (inactive); `O=C(NCCN1CCCC1)c1ccc2c(c1)NC(=O)c1ccccc1S2`: > 80 µM (inactive).

`O=C(Nc1nnc(S(=O)(=O)N2CCCCCC2)s1)c1cccc(Cl)c1`: the IC50 was > 80 µM (inactive).

For `CCN1CCC[C@@H]1CNC(=O)c1ccc2c(c1)NC(=O)/C(=C/c1ccccc1F)S2`, the IC50 is > 80 µM (inactive). Then `COc1cccc(C(=O)Nc2nnc(S(=O)(=O)N3CCCCCC3)s2)c1`, with > 80 µM (inactive). Next, `O=C1COc2ccc(C(=O)NCCN3CCCCC3)cc2N1`: > 80 µM (inactive); `Cc1cccc(/C=C2/Sc3ccc(C(=O)NCCN4CCCC4)cc3NC2=O)c1`: > 80 µM (inactive); `CCN1CCCC1CNC(=O)c1ccc2c(c1)N(Cc1ccc(C(F)(F)F)cc1)C(=O)c1ccccc1S2` (stereo not drawn): > 80 µM (inactive). Next, `CCN(CC)CCNC(=O)c1ccc2c(c1)NC(=O)/C(=C\c1ccc(OC)cc1)S2`: > 80 µM (inactive); `O=C(NCCN1CCOCC1)c1ccc2c(c1)NC(=O)c1ccccc1O2`: > 80 µM (inactive).

Consider `CCCN(CCC)CCNC(=O)c1ccc2c(c1)NC(=O)/C(=C\c1ccc(C)cc1)S2`, for which the IC50 was > 80 µM (inactive). Next, `O=C(Nc1nnc(S(=O)(=O)N2CCCCCC2)s1)c1ccco1`: > 80 µM (inactive); `COc1ccccc1C(=O)Nc1nnc(S(=O)(=O)N2CCCCCC2)s1`: > 80 µM (inactive); `O=C(Nc1nnc(S(=O)(=O)N2CCCCCC2)s1)c1ccc(F)cc1`: > 80 µM (inactive). Next, `CCN(CC)CCNC(=O)c1ccc2c(c1)N(Cc1ccc(C)cc1)C(=O)c1ccccc1S2`: > 80 µM (inactive); `CC1Cc2ccccc2N1S(=O)(=O)c1nnc(NC(=O)c2cccc(F)c2)s1` (stereo not drawn): > 80 µM (inactive).

As for `CCN(CC)CCNC(=O)c1ccc2c(c1)NC(=O)/C(=C\c1ccccc1F)S2`, the IC50 was > 80 µM (inactive).

As to `O=C1Nc2cc(C(=O)NCCN3CCCC3)ccc2S/C1=C/c1ccccc1Cl`, the IC50 was > 80 µM (inactive). Next, `CN(C)CCNC(=O)c1ccc2c(c1)NC(=O)/C(=C/c1ccccc1F)S2`: > 80 µM (inactive); `CCN1CCCC1CNC(=O)c1ccc2c(c1)NC(=O)CS2` (stereo not drawn): > 80 µM (inactive). With `CCN(CC)CCNC(=O)c1ccc2c(c1)NC(=O)/C(=C/c1ccccc1)S2`, the IC50 is > 80 µM (inactive).

`CCN1CCCC1CNC(=O)c1ccc2c(c1)NC(=O)CO2` (stereo not drawn): the IC50 was > 80 µM (inactive). Next, `Cc1ccc(CN2C(=O)c3ccccc3Sc3ccc(C(=O)NCCN(C)C)cc32)cc1`: > 80 µM (inactive); `Cc1ccccc1C(=O)Nc1nnc(S(=O)(=O)N2CCCCCC2)s1`: > 80 µM (inactive); `CCN1CCC[C@H]1CNC(=O)c1ccc2c(c1)NC(=O)/C(=C/c1ccccc1F)S2`: > 80 µM (inactive).

As for `O=C(Nc1nnc(S(=O)(=O)N2CCCCCC2)s1)C1CCCCC1`, the IC50 is > 80 µM (inactive). Next, `COc1ccc(/C=C2/Sc3ccc(C(=O)NCCN4CCCCCC4)cc3NC2=O)cc1`: > 80 µM (inactive); `CCN(CC)CCNC(=O)c1ccc2c(c1)NC(=O)c1ccccc1S2`: 67.3 µM and 69.8 µM. Then `O=C1Nc2cc(C(=O)NCCN3CCCCCC3)ccc2S/C1=C/c1ccccc1Cl`, with > 80 µM (inactive); and `CCN1CCCC1CNC(=O)c1ccc2c(c1)NC(=O)c1ccccc1O2` (stereo not drawn), with 24.2 µM. Next, `CCN1CCCC1CNC(=O)c1ccc2c(c1)N(Cc1ccccc1Cl)C(=O)c1ccccc1S2` (stereo not drawn): > 80 µM (inactive); `CCN(CCNC(=O)c1ccc2c(c1)N(CC)C(=O)c1ccccc1S2)c1ccccc1`: > 80 µM (inactive); `CC1Cc2ccccc2N1S(=O)(=O)c1nnc(NC(=O)c2cccc(Br)c2)s1` (stereo not drawn): > 80 µM (inactive).

In the case of `Cc1cccc(C(=O)Nc2nnc(S(=O)(=O)N3CCCc4ccccc43)s2)c1`, the IC50 was > 80 µM (inactive). Regarding `Cc1cccc(C(=O)Nc2nnc(S(=O)(=O)N3CCC(C)CC3)s2)c1`, the IC50 was > 80 µM (inactive). Consider `CCN(CC)CCNC(=O)c1ccc2c(c1)NC(=O)CO2`, for which the IC50 is > 80 µM (inactive). Next, `O=C1COc2ccc(C(=O)NCCN3CCCC3)cc2N1`: > 80 µM (inactive); `O=C(NCCN1CCCC1)c1ccc2c(c1)NC(=O)c1ccccc1O2`: > 80 µM (inactive); `CN(C)CCNC(=O)c1ccc2c(c1)NC(=O)/C(=C\c1cccc(Cl)c1)S2`: > 80 µM (inactive). Consider `CCN1CCCC1CNC(=O)c1ccc2c(c1)N(Cc1ccccc1F)C(=O)c1ccccc1S2` (stereo not drawn), for which the IC50 was > 80 µM (inactive).

On to `O=C(NCCN1CCCCC1)c1ccc2c(c1)NC(=O)c1ccccc1O2`, for which the IC50 is 50.3 µM. Next, `COc1cccc(/C=C2/Sc3ccc(C(=O)NCCN4CCCCCC4)cc3NC2=O)c1`: > 80 µM (inactive); `COc1cccc(/C=C2/Sc3ccc(C(=O)NCCN4CCCC4)cc3NC2=O)c1`: > 80 µM (inactive). Next, `CCN1CCCC1CNC(=O)c1ccc2c(c1)NC(=O)c1ccccc1S2` (stereo not drawn): 6.64 µM and 9.89 µM; `O=C1Nc2cc(C(=O)NCc3ccccc3)ccc2S/C1=C\c1ccccc1F`: > 80 µM (inactive). Next, `CN(C)CCNC(=O)c1ccc2c(c1)NC(=O)c1ccccc1O2`: > 80 µM (inactive); `O=C(Nc1nnc(S(=O)(=O)N2CCCCC2)s1)c1cccc(F)c1`: > 80 µM (inactive). Consider `CCN1CCCC1CNC(=O)c1ccc2c(c1)NC(=O)/C(=C\c1ccccc1F)S2` (stereo not drawn), for which the IC50 was > 80 µM (inactive). Consider `Cc1cccc(C(=O)Nc2nnc(S(=O)(=O)N3CCCCCC3)s2)c1`, for which the IC50 was > 80 µM (inactive).

`Cc1cccc(C(=O)Nc2nnc(S(=O)(=O)N3CCOCC3)s2)c1`: the IC50 is > 80 µM (inactive).

`CN(C)CCNC(=O)c1ccc2c(c1)NC(=O)/C(=C\c1ccccc1F)S2`: the IC50 was > 80 µM (inactive). Take `O=C(Nc1nnc(S(=O)(=O)N2CCOCC2)s1)c1cccc(F)c1`: the IC50 is > 80 µM (inactive). Then `CCN1CCCC1CNC(=O)c1ccc2c(c1)NC(=O)/C(=C/c1cccc3ccccc13)S2` (stereo not drawn), with > 80 µM (inactive); and `O=C1Nc2cc(C(=O)NCCN3CCCC3)ccc2S/C1=C/c1ccccc1F`, with > 80 µM (inactive); and `O=C(Nc1nnc(S(=O)(=O)N2CCCCCC2)s1)c1ccccc1`, with > 80 µM (inactive). Then `Cc1cccc(N2CCN(CCNC(=O)c3ccc4c(c3)NC(=O)c3ccccc3S4)CC2)c1C`, with > 80 µM (inactive).

For the compound `CCN1CCCC1CNC(=O)c1ccc2c(c1)NC(=O)/C(=C/c1ccccc1)S2` (stereo not drawn), the IC50 was > 80 µM (inactive).

Consider `CCN(CC)CCNC(=O)c1ccc2c(c1)NC(=O)/C(=C\c1cccc(C)c1)S2`, for which the IC50 is > 80 µM (inactive). Next, `O=C1Nc2cc(C(=O)NCCN3CCCCC3)ccc2S/C1=C\c1ccccc1F`: > 80 µM (inactive); `CN(CCNC(=O)c1ccc2c(c1)NC(=O)c1ccccc1S2)C1CCCCC1`: > 80 µM (inactive). `Cc1ccccc1C(=O)Nc1nnc(S(=O)(=O)N2CCCc3ccccc32)s1`: the IC50 is > 80 µM (inactive).

Consider `COc1ccc(C(=O)Nc2nnc(S(=O)(=O)N3CCCCCC3)s2)cc1`, for which the IC50 is > 80 µM (inactive). For `CCN(CC)CCNC(=O)c1ccc2c(c1)N(Cc1cc(C)ccc1C)C(=O)c1ccccc1S2`, the IC50 is > 80 µM (inactive). Next, `Cc1ccc(C(=O)Nc2nnc(S(=O)(=O)N3c4ccccc4CC3C)s2)cc1` (stereo not drawn): > 80 µM (inactive); `CCN(CC)CCNC(=O)c1ccc2c(c1)N(Cc1ccccc1Cl)C(=O)c1ccccc1S2`: > 80 µM (inactive). Then `CN(C)CCNC(=O)c1ccc2c(c1)NC(=O)CO2`, with > 80 µM (inactive); and `CN1CCN(C(=O)c2ccc3c(c2)NC(=O)/C(=C/c2ccccc2Cl)S3)CC1`, with > 80 µM (inactive). Consider `CCN(CC)CCNC(=O)c1ccc2c(c1)NC(=O)/C(=C\c1ccccc1Cl)S2`, for which the IC50 was > 80 µM (inactive).

For the compound `CCN1CCCC1CNC(=O)c1ccc2c(c1)NC(=O)/C(=C\c1ccc(C)cc1)S2` (stereo not drawn), the IC50 is > 80 µM (inactive).

Turning to `CCC(C)N(CCNC(=O)c1ccc2c(c1)NC(=O)c1ccccc1S2)C1CCCCC1` (stereo not drawn), the IC50 was 6.22 µM. Then `CCN1CCCC1CNC(=O)c1ccc2c(c1)NC(=O)/C(=C/c1ccccc1C)S2` (stereo not drawn), with > 80 µM (inactive); and `CCN(CC)CCNC(=O)c1ccc2c(c1)NC(=O)/C(=C\c1ccc(OC)c(OC)c1)S2`, with > 80 µM (inactive); and `CCN(CCNC(=O)c1ccc2c(c1)N(Cc1cc(C)ccc1C)C(=O)c1ccccc1S2)c1ccccc1`, with > 80 µM (inactive).
